From patent US9238657B2, “Cephalosporin having catechol group” (SHIONOGI & CO., LTD., priority 2008, dated 2016)
Converted amounts (≈) assume the structure as drawn. Read-outs that look alike come from different tables or passages of the source.

Legend:
Test in all cases: Minimum Inhibitory Concentration (MIC), agar plate incubation
Assay type in all cases: cell-based
[1] = system: Pseudomonas aeruginosa SR24
Protocol: (§1) Measurement of Minimum Inhibitory Concentration (MIC, microg/ml) was conducted according to the standard method of the Japan Society for Chemotherapy, and the amount of bacteria for inoculation was 1000 cfu/spot, and sensitive disc medium was used as the test medium, and conducted using agar plate incubation.
(§2) In the tables, a unit of the values of inhibitory activity is microg/ml (μg/ml).
(§3) Bacterial strains described in the above tables and enzyme (beta-lactamase) produced thereby are explained in Table 7.

[2] = system: Klebsiella pneumoniae ATCC 700603
Protocol: as §1, §2, §3

[3] = system: Pseudomonas aeruginosa SR27060
Protocol: as §1, §2, §3

[4] = system: Acinetobacter baumannii SR24396
Protocol: as §1, §2, §3

[5] = system: Stenotrophomonas maltophilia SR21970
Protocol: as §1, §2, §3

[6] = Pseudomonas aeruginosa, SR24, read-out: Minimum Inhibitory Concentration (MIC)
[7] = Klebsiella pneumoniae, ATCC700603, read-out: Minimum Inhibitory Concentration (MIC)
[8] = Pseudomonas aeruginosa, SR27060, read-out: Minimum Inhibitory Concentration (MIC)
[9] = Acinetobacter baumannii, SR24396, read-out: Minimum Inhibitory Concentration (MIC)
[10] = Stenotrophomonas maltophilia, SR21970, read-out: Minimum Inhibitory Concentration (MIC)
[11] = Pseudomonas aeruginosa SR24 (no enzyme, Ceftazidime sensitive strain), 1000 cfu/spot, sensitive disc medium, read-out: Minimum Inhibitory Concentration (MIC)
[12] = ATCC700603, Klebsiella pneumoniae ATCC 700603 (SHV-18, ESBL producer strain), 1000 cfu/spot, sensitive disc medium, read-out: Minimum Inhibitory Concentration (MIC)
[13] = Pseudomonas aeruginosa SR27060 (IMP-1, MBL producer strain, carbapenem resistant), 1000 cfu/spot, sensitive disc medium, read-out: Minimum Inhibitory Concentration (MIC)
[14] = Acinetobacter baumannii SR24396 (no enzyme), 1000 cfu/spot, sensitive disc medium, read-out: Minimum Inhibitory Concentration (MIC)
[15] = Stenotrophomonas maltophilia SR21970 (L-1, MBL producer strain, carbapenem resistant), 1000 cfu/spot, sensitive disc medium, read-out: Minimum Inhibitory Concentration (MIC)

SMILES	MIC [1, 11]	MIC [2, 12]	MIC [3, 13]	MIC [4, 14]	MIC [5, 15]	MIC [1, 6]	MIC [2, 7]	MIC [3, 8]	MIC [4, 9]	MIC [5, 10]
C[C@@H](C[N+]1(CC2=C(C(=O)O)N3C(=O)[C@@H](NC(=O)/C(=N\OC(C)(C)C(=O)[O-])c4csc(N)n4)[C@H]3SC2)CCCC1)NC(=O)c1ccc(O)c(O)c1Cl [II-12]	–	–	–	–	–	0.063 µg/mL (≈ 0.0822 µM)	0.25 µg/mL (≈ 0.326 µM)	0.25 µg/mL (≈ 0.326 µM)	0.25 µg/mL (≈ 0.326 µM)	1 µg/mL (≈ 1.31 µM)
CC(C)[C@H](O/N=C(\C(=O)N[C@@H]1C(=O)N2C(C(=O)[O-])=C(C[N+]34CCC(CNC(=O)c5ccc(O)c(O)c5Cl)(CC3)CC4)CS[C@H]12)c1csc(N)n1)C(=O)[O-].[Na+] [II-25]	0.063 µg/mL	0.25 µg/mL	0.25 µg/mL	0.25 µg/mL	1 µg/mL	–	–	–	–	–
NC(=O)C[C@H](O/N=C(\C(=O)N[C@@H]1C(=O)N2C(C(=O)[O-])=C(C[N+]3(CCNC(=O)c4ccc(O)c(O)c4Cl)CCCC3)CS[C@H]12)c1csc(N)n1)C(=O)O [II-4]	–	–	–	–	–	0.125 µg/mL (≈ 0.16 µM)	0.5 µg/mL (≈ 0.64 µM)	0.25 µg/mL (≈ 0.32 µM)	0.25 µg/mL (≈ 0.32 µM)	1 µg/mL (≈ 1.28 µM)
C[C@H](O/N=C(\C(=O)N[C@@H]1C(=O)N2C(C(=O)[O-])=C(C[N+]3(CCNC(=O)c4ccc(O)c(O)c4Cl)CCCC3)CS[C@H]12)c1csc(N)n1)C(=O)O [II-22]	0.125 µg/mL (≈ 0.169 µM)	0.5 µg/mL (≈ 0.677 µM)	0.25 µg/mL (≈ 0.339 µM)	0.125 µg/mL (≈ 0.169 µM)	2 µg/mL (≈ 2.71 µM)	–	–	–	–	–
CC(C)[C@H](O/N=C(\C(=O)N[C@@H]1C(=O)N2C(C(=O)[O-])=C(C[N+]3(CCNC(=O)c4ccc(O)c(O)c4Cl)CCCC3)CS[C@H]12)c1csc(N)n1)C(=O)O [II-23]	0.125 µg/mL (≈ 0.163 µM)	0.125 µg/mL (≈ 0.163 µM)	0.25 µg/mL (≈ 0.326 µM)	0.25 µg/mL (≈ 0.326 µM)	0.5 µg/mL (≈ 0.653 µM)	–	–	–	–	–
Nc1nc(/C(=N/O/C(=C/C(=O)O)C(=O)O)C(=O)N[C@@H]2C(=O)N3C(C(=O)O)=C(C[N+]4(CCNC(=O)c5ccc(O)c(O)c5Cl)CCCC4)CS[C@H]23)cs1 [II-10]	0.125 µg/mL	0.5 µg/mL	0.25 µg/mL	0.25 µg/mL	1 µg/mL	–	–	–	–	–
C[C@H](O/N=C(\C(=O)N[C@@H]1C(=O)N2C(C(=O)[O-])=C(C[N+]3(CCCNC(=O)c4ccc(O)c(O)c4)CCCC3)CS[C@H]12)c1nc(N)sc1Cl)C(=O)O [Compound I-26]	0.125 µg/mL (≈ 0.166 µM)	0.5 µg/mL (≈ 0.665 µM)	0.5 µg/mL (≈ 0.665 µM)	1 µg/mL (≈ 1.33 µM)	–	–	–	–	–	–

More lines, main results first:

MIC [1, 11]	MIC [2, 12]	MIC [3, 13]	MIC [4, 14]	MIC [5, 15]	SMILES	MIC [1, 6]	MIC [2, 7]	MIC [3, 8]	MIC [4, 9]	MIC [5, 10]
0.063 µg/mL (≈ 0.0787 µM)	0.125 µg/mL (≈ 0.156 µM)	0.125 µg/mL (≈ 0.156 µM)	0.125 µg/mL (≈ 0.156 µM)	0.25 µg/mL (≈ 0.312 µM)	CC(C)(O/N=C(\C(=O)N[C@@H]1C(=O)N2C(C(=O)[O-])=C(C[N+]3(CCNC(=O)c4cc(Cl)c(O)c(O)c4Cl)CCCCC3)CS[C@H]12)c1csc(N)n1)C(=O)O [Compound I-19]	–	–	–	–	–
0.125 µg/mL (≈ 0.17 µM)	0.5 µg/mL (≈ 0.679 µM)	0.25 µg/mL (≈ 0.34 µM)	0.125 µg/mL (≈ 0.17 µM)	2 µg/mL (≈ 2.72 µM)	C=C(O/N=C(\C(=O)N[C@@H]1C(=O)N2C(C(=O)[O-])=C(C[N+]3(CCNC(=O)c4ccc(O)c(O)c4Cl)CCCC3)CS[C@H]12)c1csc(N)n1)C(=O)O [II-1]	–	–	–	–	–
0.125 µg/mL (≈ 0.166 µM)	0.5 µg/mL (≈ 0.665 µM)	0.25 µg/mL (≈ 0.332 µM)	0.5 µg/mL (≈ 0.665 µM)	–	C[C@H](O/N=C(\C(=O)N[C@@H]1C(=O)N2C(C(=O)[O-])=C(C[N+]3(CCN(C)C(=O)c4ccc(O)c(O)c4)CCCC3)CS[C@H]12)c1nc(N)sc1Cl)C(=O)O [Compound I-25]	–	–	–	–	–
0.063 µg/mL	0.125 µg/mL	0.125 µg/mL	0.25 µg/mL	4 µg/mL	C[C@H](O/N=C(\C(=O)N[C@@H]1C(=O)N2C(C(=O)[O-])=C(C[N+]3(CCNC(=O)c4ccc(O)c(O)c4Cl)CCCC3)CS[C@H]12)c1nc(N)sc1Cl)C(=O)[O-].[Na+] [Compound I-15]	–	–	–	–	–
0.063 µg/mL (≈ 0.0822 µM)	0.125 µg/mL (≈ 0.163 µM)	0.25 µg/mL (≈ 0.326 µM)	0.25 µg/mL (≈ 0.326 µM)	0.5 µg/mL (≈ 0.653 µM)	CC(C)(O/N=C(\C(=O)N[C@@H]1C(=O)N2C(C(=O)[O-])=C(C[N+]3(CCNC(=O)c4ccc(O)c(O)c4Cl)CCCCC3)CS[C@H]12)c1csc(N)n1)C(=O)O [Compound I-18]	–	–	–	–	–
0.063 µg/mL	0.25 µg/mL	0.125 µg/mL	0.25 µg/mL	–	CC(C)(O/N=C(\C(=O)N[C@@H]1C(=O)N2C(C(=O)O)=C(C[N+]3(CCNC(=O)c4ccc(O)c(O)c4)CCCC3)CS[C@H]12)c1csc(N)n1)C(=O)O [Compound I-2]	–	–	–	–	–
